How the values were obtained:
Experiment in all cases: relative viability (nuclei count vs DMSO), 5 days (fraction); higher = more cells survive
[1] = compound: C1=CC2=C(C=C(C(=C2N=C1)O)N=NC3=CC4=C(C=C3)C=C(C=C4)S(=O)(=O)O)S(=O)(=O)O + C[C@]1(O)C[C@@H](c2nc(-c3ccc4ccc(-c5ccccc5)nc4c3)c3c(N)nccn32)C1 [Linsitinib] (partner 1 µM)
Summary of the method: (§1)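 After 5 days of treatment, lung cancer cells in 1536-well plates were fixed and stained in a single step (final 0.05% Triton X-100, 1% formaldehyde, 1 ug/ml Hoechst) and their nuclei counted on 4× images. Treatment had been applied by pin tool the day after seeding as one drug alone or as a fixed anchor-drug dose with five library-drug doses (not always all listed) in √10 steps. Relative viability is the nuclei count of treated wells divided by that of vehicle wells, and values are medians of duplicate plates.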

[2] = compound: C1=CC2=C(C=C(C(=C2N=C1)O)N=NC3=CC4=C(C=C3)C=C(C=C4)S(=O)(=O)O)S(=O)(=O)O + CC(C)C[C@H](NC(=O)[C@H](Cc1ccccc1)NC(=O)c1cnccn1)B(O)O [Bortezomib] (partner 0.002 µM)
Summary of the method: as §1

[3] = compound: O=C(NC1CCNCC1)c1n[nH]cc1NC(=O)c1c(Cl)cccc1Cl [AT-7519] + Cc1nc(NC(=O)N2CCC[C@H]2C(N)=O)sc1-c1ccnc(C(C)(C)C(F)(F)F)c1 [Alpelisib] (partner 2 µM)
Summary of the method: as §1

[4] = compound: C1=CC2=C(C=C(C(=C2N=C1)O)N=NC3=CC4=C(C=C3)C=C(C=C4)S(=O)(=O)O)S(=O)(=O)O + CC1(C)CCC(c2ccc(Cl)cc2)=C(CN2CCN(c3ccc(C(=O)NS(=O)(=O)c4ccc(N[C@H](CCN5CCOCC5)CSc5ccccc5)c(S(=O)(=O)C(F)(F)F)c4)cc3)CC2)C1 [Navitoclax] (partner 0.5 µM)
Summary of the method: as §1

Cell Line UMC-11 has a relative viability ([1]; first compound 0.08 µM) of 1.11, a relative viability ([1]; first compound 0.253 µM) of 0.943 and a relative viability ([1]; first compound 0.8 µM) of 1.03. The relative viability ([1]; first compound 2.53 µM) was 1.02, the relative viability ([1]; first compound 8 µM) was 0.944 and the relative viability ([2]; first compound 0.08 µM) was 0.84. For the same cell line, the relative viability ([2]; first compound 0.253 µM) was 0.783, the relative viability ([2]; first compound 0.8 µM) was 0.708 and the relative viability ([2]; first compound 2.53 µM) was 0.633. For the same cell line, the relative viability ([2]; first compound 8 µM) was 0.606, the relative viability ([3]; first compound 0.01 µM) was 0.841 and the relative viability ([3]; first compound 0.03162 µM) was 0.94. It also gave a relative viability ([3]; first compound 0.3162 µM) of 0.587, a relative viability ([3]; first compound 1 µM) of 0.35 and a relative viability ([4]; first compound 0.08 µM) of 0.261. The relative viability ([4]; first compound 0.253 µM) was 0.334, the relative viability ([4]; first compound 0.8 µM) was 0.314 and the relative viability ([4]; first compound 2.53 µM) was 0.293. For the same cell line, the relative viability ([4]; first compound 8 µM) was 0.333.
